{
  "source": "patent US11512314B2",
  "about": "“Amphiphilic polynucleotides” (Duke University, priority 2019, dated 2022)",
  "origin": "cited, not measured here",
  "key": {"[1]": {"target": "prostate-specific membrane antigen (PSMA) (Homo sapiens, UniProt Q04609)", "sequence (Q04609 whole entry)": "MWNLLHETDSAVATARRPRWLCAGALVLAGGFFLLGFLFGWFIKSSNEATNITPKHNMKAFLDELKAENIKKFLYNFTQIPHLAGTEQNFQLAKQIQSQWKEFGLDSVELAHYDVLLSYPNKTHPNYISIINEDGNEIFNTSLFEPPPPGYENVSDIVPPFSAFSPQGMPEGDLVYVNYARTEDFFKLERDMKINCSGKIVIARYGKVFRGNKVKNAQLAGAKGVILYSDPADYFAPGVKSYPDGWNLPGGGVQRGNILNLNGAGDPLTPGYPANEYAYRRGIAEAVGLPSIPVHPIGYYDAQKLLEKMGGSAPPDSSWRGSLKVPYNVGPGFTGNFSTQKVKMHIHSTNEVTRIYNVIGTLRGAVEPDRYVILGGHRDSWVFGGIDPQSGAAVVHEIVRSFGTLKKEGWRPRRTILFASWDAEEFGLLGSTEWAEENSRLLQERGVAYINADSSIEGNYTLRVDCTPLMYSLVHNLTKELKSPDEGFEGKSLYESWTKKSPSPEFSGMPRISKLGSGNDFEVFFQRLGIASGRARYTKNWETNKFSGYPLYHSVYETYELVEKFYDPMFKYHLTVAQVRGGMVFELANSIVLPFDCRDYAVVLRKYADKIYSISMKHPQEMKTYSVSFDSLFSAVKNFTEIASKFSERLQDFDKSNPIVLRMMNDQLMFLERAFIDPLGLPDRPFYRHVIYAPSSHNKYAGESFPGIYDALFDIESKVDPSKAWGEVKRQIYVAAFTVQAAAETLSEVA", "details": "binding to PSMA"}, "[2]": {"details": "small molecule drug"}, "[3]": {"details": "free 5FU, reported value"}},
  "note": "Like-named read-outs stand apart in the source and are kept apart here.",
  "data": [
    {"compound": "5′-GGGAGGACGAUGCGGAUCAGCCAUGUUUACGUCACUCCU-3′ (listed as RNA, chemistry not given here) [A10]", "values": [
      {"measurement": "Kd", "setting": "[1]", "value": 2.1, "unit": "nM"}
    ]},
    {"compound": "O=c1[nH]cc(F)c(=O)[nH]1", "note": "[5FU]", "values": [
      {"measurement": "half-life", "setting": "[2]", "value": "8 to 14", "unit": "min"},
      {"measurement": "reported MTD", "setting": "[3]", "value": "15 to 20", "unit": "mg/kg"},
      {"measurement": "reported MTD", "setting": "[3]; listed as 5-FU", "value": 20, "unit": "mg/kg"}
    ]}
  ]
}
